These results are taken from ChEMBL document CHEMBL1201862, “PubChem BioAssay data set” (2004).

Among the test systems are IGROV-1; PC-3; MDA-N; KM-20L2; TK-10; NCI-H522; SF-295; SNB-19; U-251; T47D; SK-MEL-2; NCI-H23; OVCAR-5; SF-539; ACHN; EKVX; 786-0; NCI-H226; CCRF-CEM; HCT-116.
What all share (assay): DTP human tumour cell line panel, 48 h

SMILES strings stand for the structures.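 Five compound concentrations were applied to cells in 96-well plates for 48 hours; endpoints were derived by simple linear interpolation of the resulting dose-response curve. The concentration for 50% growth inhibition is given as GI50.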 Activity calls are given as the source filed them. Rule as the data show it: active = GI50 up to about 1.1 µM and inactive = higher.

With `CC[C@@]1(OP(=O)(O)O)C(=O)OCc2c1cc1n(c2=O)Cc2cc3ccccc3nc2-1`, the GI50 (usually the concentration that inhibits growth by half) with IGROV-1 is 311 nM (active); with PC-3, 320 nM (active); with MDA-N, 537 nM (active); in the assay on KM-20L2 it was 1000 nM (active); with TK-10 it was 2550 nM (inactive); in the assay on NCI-H522, 286 nM (active). The GI50 with SF-295 was 30.1 nM (active); in the assay on SNB-19, 79.8 nM (active); in the assay on U-251 it was 60.3 nM (active); in the assay with T47D it was 132 nM (active); with SK-MEL-2, 2940 nM (inactive); in the assay on NCI-H23 it was 60.8 nM (active). For the same compound, the GI50 is 231 nM (active) with OVCAR-5; 109 nM (active) in the assay on SF-539; 40.5 nM (active) in the assay with ACHN; 1120 nM (inactive) in the assay with EKVX; 60.7 nM (active) with 786-0; 179 nM (active) with NCI-H226. For the same compound, the GI50 in the assay with CCRF-CEM is 9.27 nM (active); with HCT-116 it was 157 nM (active).
For the compound `NC(=O)c1cccc([C@@H]2O[C@H](CO)[C@@H](O)[C@H]2O)c1`, the GI50 in the assay with IGROV-1 was 37800 nM (inactive); in the assay on PC-3 it was 30900 nM (inactive); with MDA-N it was 24100 nM (inactive); in the assay with KM-20L2, 7360 nM (inactive); in the assay with TK-10 it was 29600 nM (inactive); in the assay on NCI-H522 it was 4140 nM (inactive). Also, the GI50 in the assay on SF-295 was 9060 nM (inactive); in the assay with SNB-19 it was 14000 nM (inactive); with U-251, 11500 nM (inactive); in the assay with T47D, > 35800 nM (inactive); in the assay with SK-MEL-2, > 97100 nM (inactive); in the assay on NCI-H23, 10300 nM (inactive). Further, the GI50 with OVCAR-5 was 47400 nM (inactive); in the assay with SF-539 it was 2240 nM (inactive); in the assay with ACHN, 18200 nM (inactive); in the assay on EKVX, 68700 nM (inactive); with 786-0, 3720 nM (inactive); in the assay with NCI-H226 it was 12500 nM (inactive). In addition, the GI50 in the assay on CCRF-CEM was 1330 nM (inactive); in the assay on HCT-116 it was 18500 nM (inactive).
